We go through 28 compounds from PubChem BioAssay (NCI).

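Step 1: Grow cells in 96-well plates. Step 2: Expose to compound for 48 hours at 5 concentrations. Step 3: Interpolate endpoints linearly; if unreached, use highest concentration. At the TGI there is no net growth.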

Experiment in all cases: NCI-60 cell line screen, 48 h
In assay [1] the test system is SNB-19 CNS.
Assay [2] deals with MOLT-4 leukemia.
The subject of assay [3] is MDA-N.
Assay [4] concerns RXF 393 renal.
The subject of assay [5] is M14 melanoma.
Assay [6] has as its system U251 CNS.
Assay [7] concerns RPMI-8226 leukemia.
The subject of assay [8] is T-47D breast.
Assay [9] has as its system MCF7 breast.
Assay [10] deals with SF-539 CNS.

On to `COC(=O)c1c(C#C[Si](C)(C)C)c(C#C[Si](C)(C)C)c(C#C[Si](C)(C)C)c(C#C[Si](C)(C)C)c1C(=O)OC`, for which the TGI in assay [1], in assay [2], in assay [3], in assay [4], in [5] and in assay [6] was over 100 µM in each case. Besides, the TGI in assay [7], in [8], in assay [9] and in assay [10] was over 100 µM each time.
For the compound `C/C(=C\c1ccccc1)C(=O)NCc1ccc(C(=O)NCCc2c[nH]c3ccccc23)cc1`, the TGI in assay [1], in [2], in assay [3], in [4], in [5] and in assay [6] was over 100 µM in each case. The TGI in assay [7], in assay [8], in assay [9] and in assay [10] was over 100 µM throughout.
Consider `CSC1NNC2(C(=O)N1)c1ccccc1-c1ccccc12` (stereo unspecified), for which the TGI in assay [1], in assay [2], in [3], in assay [4], in [5] and in [7] was over 10 µM each time. Besides, the TGI in assay [8], in assay [9] and in [10] was over 10 µM each time.
Regarding `Cc1ccc2c(=O)c(C(=O)N(CCO)CCO)c[nH]c2n1`, the TGI in assay [1], in [2], in assay [3], in assay [4], in assay [5] and in [6] was over 100 µM each time. Further, the TGI in assay [7], in assay [8] and in [9] was over 100 µM each time.
Regarding `Cc1nnc(CC#N)n1NC(=O)CC#N`, the TGI in [1], in assay [2], in assay [3], in assay [4], in assay [5] and in assay [6] was over 100 µM in each case. Also, the TGI in assay [8], in assay [9] and in assay [10] was over 100 µM throughout.
For the compound `OC(O)(C(F)(F)F)C(F)(F)F`, the TGI in [1], in assay [2], in [3], in assay [4], in assay [5] and in assay [6] was over 100 µM throughout. For the same compound, the TGI in assay [7], in assay [8], in assay [9] and in assay [10] was over 100 µM throughout.
For the compound `CCCCCCCCC[n+]1cccc(C2C(C(=O)OCC)=C(C)NC(C)=C2C(=O)OCC)c1`, the TGI was found to be 11.2 µM in assay [1]; 19.2 µM in [2]; 4.39 µM in [3]; 5.94 µM in assay [4]; 7.32 µM in [5]; 12.6 µM in assay [6]. The TGI is 5.28 µM in assay [7], 20.3 µM in assay [8], 6.74 µM in assay [9] and 15.6 µM in assay [10].
As for `COC(=O)/C=C\C(C#N)(C#N)N=Cc1ccsc1`, the TGI in assay [1] was 27.6 µM; in assay [2] it was 5 µM; in assay [3], 8.66 µM; in [4], 3.72 µM; in assay [5], 8.23 µM; in assay [6], 29.7 µM. In addition, the TGI came to 3.28 µM in assay [7], 4.17 µM in assay [8] and 5.05 µM in assay [9].
Turning to `O=S(=O)(O)c1ccc(Nc2ccnc3cc(Cl)ccc23)cc1`, the TGI in assay [1], in assay [2], in [3], in assay [4], in [5] and in [6] was over 100 µM throughout. The TGI in assay [7], in assay [8], in assay [9] and in assay [10] was over 100 µM in each case.
On to `CCOC(=O)CCC(C(=O)OCC)n1nnc2cc(Nc3c(C)[n+]([O-])c4ccc(Cl)cc4[n+]3[O-])ccc21` (stereo unspecified), for which the TGI in [1], in [2], in [3], in assay [4], in assay [5] and in assay [6] was over 100 µM in each case. The TGI in assay [7] was over 100 µM; in assay [8] it was over 100 µM; in [9] it was 93 µM; in assay [10], over 100 µM.
For `CSc1ccccc1P(CCP(c1ccccc1SC)c1ccccc1SC)c1ccccc1SC`, the TGI in [1] is over 100 µM; in assay [2] it was over 100 µM; in [3] it was over 100 µM; in assay [4] it was over 84.9 µM; in [5], over 100 µM; in [6], over 100 µM. The TGI in assay [7] was over 88.1 µM; in assay [8], over 100 µM; in [9], over 100 µM; in assay [10], over 79.1 µM.
Regarding `CC1(C)CC2(C)OC(=N)C1(C#N)C2(C#N)C#N` (stereo unspecified), the TGI in assay [1] worked out at 31 µM; in assay [2], 38.1 µM; in [3], 20.2 µM; in assay [4], 27.2 µM; in [5], 23.8 µM; in [6], 29.3 µM. For the same compound, the TGI in assay [7] was found to be 23.7 µM; in [8], 37.7 µM; in assay [9], 24.8 µM; in [10] it was 24.5 µM.
For the compound `C=C1C(=O)O[C@H]2C3C(=C(C)CC[C@@H]12)C(=O)[C@@H]1OC31C` (stereo partly specified), the TGI in assay [1] was determined as 29.5 µM; in assay [2], 3.27 µM; in assay [3] it was 3.95 µM; in assay [4] it was 2.99 µM; in assay [5] it was 3.19 µM; in assay [6], 26.3 µM. Further, the TGI in assay [7] turned out to be 3.62 µM; in assay [8], 3.96 µM; in [9], 11.2 µM; in [10], 6.75 µM.
Take `c1ccc2c(c1)c1c3n2-c2cc(on2)C3CCC1` (stereo unspecified): the TGI in assay [1], in [2], in assay [3], in assay [4], in [5] and in assay [6] was over 100 µM throughout. Moreover, the TGI in [7], in assay [8], in [9] and in assay [10] was over 100 µM throughout.
As to `COc1ccccc1N1C(=O)/C(=C\c2cccc(Oc3ccccc3)c2)S(=O)(=O)C1c1ccccc1` (stereo unspecified), the TGI in assay [1] was over 100 µM; in assay [2], 32.8 µM; in [3] it was over 100 µM; in assay [4], over 100 µM; in [5], over 100 µM; in assay [6] it was over 100 µM. Moreover, the TGI in [8] and in [9] was over 100 µM throughout.
Take `COc1cc(-c2[o+]c3cc(O)cc(OC4OC(CO)C(O)C(O)C4O)c3cc2OC2OC(CO)C(O)C(O)C2O)cc(OC)c1O` (stereo unspecified): the TGI in assay [1], in [2], in assay [3], in assay [4], in assay [5] and in assay [6] was over 100 µM throughout. Moreover, the TGI in assay [7], in [8], in assay [9] and in assay [10] was over 100 µM throughout.
As to `Cn1c(=O)c2[nH]c(CCC(=O)O)nc2n(C)c1=O`, the TGI in assay [1], in [3], in assay [4], in assay [5], in assay [6] and in assay [7] was over 100 µM throughout. Also, the TGI in assay [8], in assay [9] and in [10] was over 100 µM each time.
Take `CCOC(=O)c1cc(-c2ccn(C(C)=O)c2)c(-c2cc(C)co2)[nH]1`: the TGI in assay [1], in assay [2], in [3], in assay [4], in assay [5] and in [6] was over 100 µM in each case. Besides, the TGI in assay [7], in assay [8] and in [9] was over 100 µM throughout.
For `CCOC(=O)N1C(=S)C(C(=O)OC)(C(=O)OC)N=C1C`, the TGI in assay [1], in assay [2], in [3], in assay [4], in [5] and in assay [6] was over 100 µM throughout. The TGI in assay [7], in assay [8] and in assay [9] was over 100 µM in each case.
As for `Cc1ccc(S(=O)(=O)N2CCN(CCO)CCN(S(=O)(=O)c3ccc(C)cc3)CCN(CCO)CC2)cc1`, the TGI in assay [1] is over 100 µM; in assay [2], 57.1 µM; in assay [3], 93.6 µM; in [4], 82.1 µM; in assay [5], 31.5 µM; in assay [6], 72.3 µM. In addition, the TGI was 36.2 µM in [8], 28.2 µM in [9] and 33.4 µM in assay [10].
As for `Cc1cccc(C(O)c2cccnc2)c1O` (stereo unspecified), the TGI in assay [1], in [2], in assay [3], in [4], in assay [6] and in assay [7] was over 100 µM throughout. The TGI in assay [8], in assay [9] and in assay [10] was over 100 µM throughout.
Consider `O=C(O)CCCc1ccc2c(c1)CC1(C2)Cc2ccc(CCCC(=O)O)cc2C1`, for which the TGI in [2], in assay [3], in assay [4], in assay [5], in assay [6] and in assay [7] was over 100 µM in each case. For the same compound, the TGI in assay [8], in assay [9] and in assay [10] was over 100 µM each time.
For the compound `CC1(C)Oc2ccc3c(=O)c4ccccc4oc3c2C1C(=O)O` (stereo unspecified), the TGI in [2], in assay [3], in assay [4], in [5], in [6] and in assay [8] was over 100 µM each time. Besides, the TGI in [9] and in assay [10] was over 100 µM each time.
`c1ccc(CNc2ncnc3n[nH]nc23)cc1`: the TGI in assay [1], in [2], in assay [3], in [4], in assay [5] and in assay [6] was over 100 µM throughout. The TGI in assay [8], in assay [9] and in assay [10] was over 100 µM in each case.
Consider `C=C1C(=O)O[C@H]2C/C(C=O)=C\[C@H]3O[C@H]3/C(COC(=O)C(C)C)=C/CC12` (stereo partly specified), for which the TGI in assay [1] was 35.4 µM; in [2], 10.6 µM; in assay [3] it was 13.4 µM; in assay [4] it was 14 µM; in [6], 19.6 µM; in [7], 7.61 µM. The TGI is 7 µM in assay [8], 50 µM in [9] and 47.3 µM in assay [10].
Take `S=C(Nc1ccc2c(c1)Cc1ccccc1-2)Nc1ccc2c(c1)Cc1ccccc1-2`: the TGI in assay [1] is over 100 µM; in assay [2] it was 39.5 µM; in assay [3] it was over 100 µM; in [4], over 100 µM; in [5], over 100 µM; in assay [6], over 100 µM. The TGI in assay [7], in [8] and in assay [9] was over 100 µM in each case.
Turning to `C/C(=C\CNc1nc(Cl)nc2nc[nH]c12)CO`, the TGI in assay [1], in assay [2], in assay [3], in [4], in [5] and in assay [7] was over 100 µM each time. Moreover, the TGI in assay [8], in [9] and in assay [10] was over 100 µM throughout.
In the case of `Cn1c(=O)c2sc3cc4c(cc3c2c2ccccc21)sc1c(=O)n(C)c2ccccc2c14`, the TGI in assay [2] is over 100 µM; in [3] it was over 100 µM; in assay [4], 45 µM; in [5], over 100 µM; in assay [6], 43.6 µM; in [7], over 100 µM. Also, the TGI in assay [8], in assay [9] and in [10] was over 100 µM throughout.
